The values that follow are results of earlier work, collected in US20100183726A1, “COMPOSITIONS AND METHODS FOR TREATING CANCER WITH DACARBAZINE NANOEMULSIONS” (priority 2006, published 2010).

Read-outs that look alike come from different tables or passages of the source.

For data set [1], the system named is metastatic melanoma.
Data set [2] concerns melanoma B16 cells.
The test system of data set [3] is melanoma B16F10 cells. As to conditions: 150 mg/kg; 14 days after inoculation; p<0.01 versus untreated controls.
In data set [4] the test system is B16 cells. Conditions: 200 μg/ml.
Data set [5] deals with Cloudman S91 cells. As to conditions: 100 μg/ml.
Assay in data set [6]: not given
The source holds these as a separate data set.

Where [7] appears, read: dacarbazine alone, meta-analysis of 14 studies, 1167 patients.

Take `CN(C)N=Nc1[nH]cnc1C(N)=O` [dacarbazine, 5-(3,3-dimethyl-1-triazeno)imidazole-4-carboxamide]: in data set [1] (143 patients treated with dacarbazine alone), the complete remission was 5%. In addition, in data set [1] (contemporary trials), the average response rates was less than 10% and the median progression-free survival is not above 2 months. For the same molecule, in data set [1] (setting [7]), the average mean survival is on record as 8 months, the average response rate was 18.7% and the “complete remission average rate” value is reported as 5.4%. Moreover, in data set [2] (B16 cells implanted intraperitoneally), the increased survival time is given as 29%. Moreover, the increased survival time in data set [2] (B16 cells implanted subcutaneously) was 43%. Also, in data set [2] (intraperitoneal injection), the “inhibition of tumor growth” value is on record as “did not inhibit tumor growth”. The “number of metastatic pulmonary nodules” value in data set [3] is recorded as “significantly decreased”. Also, in data set [4], the “highest induction of apoptosis” value is on record as 11%. The “highest induction of apoptosis” value in data set [5] was 22.2%. The “patients developing constitutional symptoms (nausea, vomiting, occasionally diarrhea)” value (in vivo) is recorded as 90%. Besides, the cytopenia grade result (white cell and platelet counts after injection) is listed as “WHO grade 1 or rarely grade 2”. In addition, the “T50% α value relative to typical dose” value in data set [6] (higher doses (850-1980 mg/m^2)) is recorded as 3.5 fold. In data set [6] (in vivo), the “injected dose crossing the blood-brain barrier” value is listed as 13%, the protein binding entry was “binds weakly to proteins”, the “secretion in breast milk” value is recorded as “secreted in breast milk” and the volume of distribution entry was “exceeds the water volume of the body”. Further, in data set [6] (intravenously injected), the bioavailable fraction is listed as 50-60%. For the same molecule, the “fraction of an oral dose absorbed” value in data set [6] (oral administration) is recorded as 14-23%. Also, in data set [6] (regardless of the dose injected), the renal clearance result is given as “exceeds creatinine clearance”.
In the case of `NC(=O)c1nc[nH]c1N` [AIC, 5-aminoimidazol-me-4-carboxamide], the “time to maximal serum concentration” value in data set [6] (after injection of dacarbazine) was 15 min. In addition, the “time at which detectable after intravenous injection of dacarbazine” value in data set [6] (in vivo, iv) is 15 min.
